MIC, CC50 and logP data for 15 compounds are collected here from ChEMBL document CHEMBL1208676, “Synthesis and in vitro antimycobacterial activity of balofloxacin ethylene isatin derivatives” (Eur J Med Chem, 2010).

≈ marks a conversion by molar mass, not a printed value. Bounds are passed on as bounds.

The test system of data set [1] is Mycolicibacterium phlei. The experiment in a line: Antimycobacterial activity against Mycobacterium phlei CMCC 93201 after 72 hrs by serial double dilution method. The data set is classed as functional. The settings on record: CMCC 93201, 72 h.
Data set [2] has as its system Mycolicibacterium smegmatis. Kind of data set: Antimycobacterial activity against Mycobacterium smegmatis CMCC 93202 after 72 hrs by serial double dilution method. Type of data set: functional. The conditions noted are these: CMCC 93202, 72 h.
Data set [3] can be described thus: Cytotoxicity against african green monkey Vero cells after 72 hrs by MTT assay. Type of data set: cell-based. The settings on record: chlorocebus sabaeus. On the technique in general: Tetrazolium dyes change colour on reduction, which living cells bring about.
Data set [4] in a line: Lipophilicity, log P of the compound. The data set is classed as physicochemical. The settings on record: octanol/water.
Data set [5] concerns Mycobacterium tuberculosis. The experiment in a line: Antimycobacterial activity against Mycobacterium tuberculosis 09710 after 72 hrs by serial double dilution method. The data set is classed as functional. The conditions noted are these: Mycobacterium tuberculosis, 09710, 72 h.
Data set [6] relates to Mycobacterium tuberculosis. The experiment in a line: Antimycobacterial activity against Mycobacterium tuberculosis H37Rv ATCC 27294 after 72 hrs by serial double dilution method. The data set is classed as functional. The settings on record: H37Rv ATCC 27294, 72 h.

Usually MIC stands for the smallest concentration in the dilution series that meets the test's criterion for growth inhibition. A word on the CC50: it is the concentration at which the toxic effect on the cells reaches its halfway point. Regarding `CO/N=C1/C(=O)N(CCN(C)C2CCCN(c3c(F)cc4c(=O)c(C(=O)O)cn(C5CC5)c4c3OC)C2)c2ccccc21` (centres undefined), the MIC in data set [1] amounted to 3.12 mg/L (≈ 5.27 µM); in data set [2], 6.25 mg/L (≈ 10.6 µM). This compound also displayed a CC50 at 72 h in data set [3] of 15 µM.
On to `COc1c(N2CCCC(N(C)CCN3C(=O)/C(=N\NC(N)=O)c4ccccc43)C2)c(F)cc2c(=O)c(C(=O)O)cn(C3CC3)c12` (centres undefined), for which the MIC in data set [1] and in data set [2] was 12.5 mg/L (≈ 20.2 µM) each time. For the same compound, in data set [3], the CC50 at 72 h amounted to 56.1 µM.
For `COc1c(N2CCCC(N(C)CCN3C(=O)/C(=N\NC(N)=O)c4cc(F)ccc43)C2)c(F)cc2c(=O)c(C(=O)O)cn(C3CC3)c12` (centres undefined), the MIC in data set [1] and in data set [2] was 6.25 mg/L (≈ 9.8 µM) throughout. Also, the CC50 at 72 h in data set [3] turned out to be 57 µM.
Turning to `COc1c(N2CCCC(N(C)CCN3C(=O)/C(=N\Nc4ccccc4)c4cc(F)ccc43)C2)c(F)cc2c(=O)c(C(=O)O)cn(C3CC3)c12` (centres undefined), the values for the MIC in data set [1] and in data set [2] were 3.12 mg/L (≈ 4.65 µM) and 6.25 mg/L (≈ 9.32 µM), respectively. Also, in data set [3], the CC50 at 72 h was < 6 µM.
As usually defined, the logP is the decadic logarithm of the partition coefficient of the neutral form, usually between octanol and water. Regarding `CCO/N=C1/C(=O)N(CCN(C)C2CCCN(c3c(F)cc4c(=O)c(C(=O)O)cn(C5CC5)c4c3OC)C2)c2ccc(F)cc21` (centres undefined), the MIC in data set [1] is 3.12 mg/L (≈ 5 µM); in data set [2], 6.25 mg/L (≈ 10 µM). Besides, the CC50 at 72 h in data set [3] was determined as 53.1 µM. Further, the logP in data set [4] was found to be 1.29.
With `COc1c(N2CCCC(N(C)CCN3C(=O)/C(=N\NC(N)=S)c4ccccc43)C2)c(F)cc2c(=O)c(C(=O)O)cn(C3CC3)c12` (centres undefined), the figures for the MIC in data set [1] and in data set [2] were 3.12 mg/L (≈ 4.91 µM) and 6.25 mg/L (≈ 9.83 µM), respectively. Moreover, the CC50 at 72 h in data set [3] turned out to be 294 µM. The same compound had a logP in data set [4] of 1.4.
On to `CCO/N=C1/C(=O)N(CCN(C)C2CCCN(c3c(F)cc4c(=O)c(C(=O)O)cn(C5CC5)c4c3OC)C2)c2ccccc21` (centres undefined), for which the MIC in data set [1] was 3.12 mg/L (≈ 5.15 µM); in data set [2], 6.25 mg/L (≈ 10.3 µM). Moreover, the CC50 at 72 h in data set [3] was 60.5 µM. Moreover, the logP in data set [4] came to 0.96.
Consider `CNC1CCCN(c2c(F)cc3c(=O)c(C(=O)O)cn(C4CC4)c3c2OC)C1` (centres undefined) [BALOFLOXACIN], for which the MIC in data set [1] worked out at 0.78 mg/L (≈ 2 µM); in data set [2], 0.39 mg/L (≈ 1 µM); in data set [5] it was 16 mg/L (≈ 41.1 µM); in data set [6], 8 mg/L (≈ 20.5 µM). In data set [3], this compound gave a CC50 at 72 h of 317 µM. Besides, the logP in data set [4] was -1.11.
For `COc1c(N2CCCC(N(C)CCN3C(=O)/C(=N\Nc4ccccc4)c4ccccc43)C2)c(F)cc2c(=O)c(C(=O)O)cn(C3CC3)c12` (centres undefined), the figures for the MIC in data set [1] and in data set [2] were 3.12 mg/L (≈ 4.78 µM) and 6.25 mg/L (≈ 9.58 µM), respectively. In addition, the CC50 at 72 h in data set [3] is < 6.1 µM.
Take `COc1c(N2CCCC(N(C)CCN3C(=O)C(=O)c4cc(F)ccc43)C2)c(F)cc2c(=O)c(C(=O)O)cn(C3CC3)c12` (centres undefined): the MIC in data set [1] was 25 mg/L (≈ 43.1 µM); in data set [2] it was 12.5 mg/L (≈ 21.5 µM); in data set [5] it was 64 mg/L (≈ 110 µM). In data set [3], this compound registered a CC50 at 72 h of 96.2 µM.
Take `CO/N=C1/C(=O)N(CCN(C)C2CCCN(c3c(F)cc4c(=O)c(C(=O)O)cn(C5CC5)c4c3OC)C2)c2ccc(F)cc21` (centres undefined): the MIC was determined as 3.12 mg/L (≈ 5.12 µM) in data set [1] and 6.25 mg/L (≈ 10.3 µM) in data set [2]. In addition, in data set [3], half-maximal cytotoxicity (CC50 at 72 h) was put at 12.8 µM.
Take `COc1c(N2C[C@@H]3CCCN[C@@H]3C2)c(F)cc2c(=O)c(C(=O)O)cn(C3CC3)c12` [MOXIFLOXACIN]: the MIC is 0.2 mg/L (≈ 0.498 µM) in data set [1], 0.1 mg/L (≈ 0.249 µM) in data set [2], < 0.5 mg/L in data set [5] and 0.25 mg/L (≈ 0.623 µM) in data set [6].
`COc1c(N2CCCC(N(C)CCN3C(=O)/C(=N/O)c4cc(F)ccc43)C2)c(F)cc2c(=O)c(C(=O)O)cn(C3CC3)c12` (centres undefined): the MIC in data set [1] is 6.25 mg/L (≈ 10.5 µM); in data set [2], 12.5 mg/L (≈ 21 µM). Further, the midpoint of cytotoxicity in data set [3], the CC50 at 72 h, lay at 306 µM.
Consider `COc1c(N2CCCC(N(C)CCN3C(=O)/C(=N\NC(N)=S)c4cc(F)ccc43)C2)c(F)cc2c(=O)c(C(=O)O)cn(C3CC3)c12` (centres undefined), for which the MIC is 3.12 mg/L (≈ 4.77 µM) in data set [1] and 6.25 mg/L (≈ 9.56 µM) in data set [2]. In data set [3], the CC50 at 72 h was determined as 313 µM. In data set [4], this compound had a logP of 1.8.
Regarding `COc1c(N2CCCC(N(C)CCN3C(=O)C(=O)c4ccccc43)C2)c(F)cc2c(=O)c(C(=O)O)cn(C3CC3)c12` (centres undefined), the MIC in data set [1] and in data set [2] was 25 mg/L (≈ 44.4 µM) throughout. In data set [3], the CC50 at 72 h was 137 µM.
